Usually Ki stands for a dissociation constant, usually derived from enzyme kinetics or from competition with a known ligand. Usually IC50 stands for the midpoint of a concentration-inhibition curve.

From ChEMBL document CHEMBL4613318, “Benzofuran-Based Carboxylic Acids as Carbonic Anhydrase Inhibitors and Antiproliferative Agents against Breast Cancer” (ACS Med Chem Lett, 2020) come the findings set out here.

One assay addresses Carbonic anhydrase 2 (Homo sapiens, UniProt P00918). Briefly: Inhibition of recombinant human carbonic anhydrase 2 preincubated with enzyme for 15 mins by phenol red dye based stopped flow CO2 hydration assay.
Another assay concerns the target Carbonic anhydrase 12 (Homo sapiens, UniProt O43570). In words: Inhibition of recombinant human carbonic anhydrase 12 preincubated with enzyme for 15 mins by phenol red dye based stopped flow CO2 hydration assay.
The next assay deals with Carbonic anhydrase 9 (Homo sapiens, UniProt Q16790).
Another assay concerns the target Carbonic anhydrase 1 (Homo sapiens, UniProt P00915). In words: Inhibition of recombinant human carbonic anhydrase 1 preincubated with enzyme for 15 mins by phenol red dye based stopped flow CO2 hydration assay.
The subject of another assay is MCF7. Briefly: Antiproliferative activity against human MCF7 cells assessed as reduction in cell viability incubated for 48 hrs by SRB assay. In kind it is functional, cell-based. Conditions: MCF7, 48 h. A general note: Sulforhodamine B stains cellular protein and so reports cell mass.
Another assay relates to MDA-MB-231. Briefly: cells. Conditions: Homo sapiens, MDA-MB-231, 48 h.
The species named for assay [1] is Homo sapiens. In words: Selectivity index, ratio of Ki for recombinant human carbonic anhydrase 2 preincubated with enzyme for 15 mins by phenol red dye based stopped flow CO2 hydration assay to Ki for recombinant human carbonic anhydrase 12 preincubated with enzyme for 15 mins by phenol red dye based stopped flow CO2 hydration assay.
The species named for assay [2] is Homo sapiens. Briefly: Selectivity index, ratio of Ki for recombinant human carbonic anhydrase 1 preincubated with enzyme for 15 mins by phenol red dye based stopped flow CO2 hydration assay to Ki for recombinant human carbonic anhydrase 12 preincubated with enzyme for 15 mins by phenol red dye based stopped flow CO2 hydration assay.
For assay [3], the species on record is Homo sapiens. In words: Selectivity index, ratio of Ki for recombinant human carbonic anhydrase 1 preincubated with enzyme for 15 mins by phenol red dye based stopped flow CO2 hydration assay to Ki for recombinant human carbonic anhydrase 9 preincubated with enzyme for 15 mins by phenol red dye based stopped flow CO2 hydration assay.
Assay [4] is filed under the species Homo sapiens. In words: Selectivity index, ratio of Ki for recombinant human carbonic anhydrase 2 preincubated with enzyme for 15 mins by phenol red dye based stopped flow CO2 hydration assay to Ki for recombinant human carbonic anhydrase 9 preincubated with enzyme for 15 mins by phenol red dye based stopped flow CO2 hydration assay.

Chain of Carbonic anhydrase 1 (P00915 whole entry): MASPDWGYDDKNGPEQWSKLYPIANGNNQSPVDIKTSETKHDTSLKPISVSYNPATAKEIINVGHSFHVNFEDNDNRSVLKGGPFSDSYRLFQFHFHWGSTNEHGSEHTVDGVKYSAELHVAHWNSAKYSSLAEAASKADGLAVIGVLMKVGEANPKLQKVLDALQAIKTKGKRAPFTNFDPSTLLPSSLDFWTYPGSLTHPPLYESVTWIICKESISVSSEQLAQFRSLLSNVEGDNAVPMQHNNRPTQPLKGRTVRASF
Chain of Carbonic anhydrase 12 (O43570 whole entry): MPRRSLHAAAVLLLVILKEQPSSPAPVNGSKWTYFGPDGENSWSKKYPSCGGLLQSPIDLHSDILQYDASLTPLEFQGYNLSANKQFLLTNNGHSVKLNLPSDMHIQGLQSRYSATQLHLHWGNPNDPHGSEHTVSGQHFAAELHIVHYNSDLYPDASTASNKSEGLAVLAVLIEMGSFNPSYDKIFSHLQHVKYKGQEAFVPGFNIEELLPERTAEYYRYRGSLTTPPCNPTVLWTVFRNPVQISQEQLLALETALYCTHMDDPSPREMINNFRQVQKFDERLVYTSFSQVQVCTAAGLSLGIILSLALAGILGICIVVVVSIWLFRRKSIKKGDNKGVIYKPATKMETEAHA
Description for Carbonic anhydrase 9: Inhibition of recombinant human carbonic anhydrase 9 preincubated with enzyme for 15 mins by phenol red dye based stopped flow CO2 hydration assay

Regarding `O=C(Nc1cccc(C(=O)O)c1)Nc1cc2cc(Br)ccc2o1`, the Ki on Carbonic anhydrase 2 amounted to 37 µM; on Carbonic anhydrase 12 it was 2.3 µM; on Carbonic anhydrase 9 it was 0.79 µM; on Carbonic anhydrase 1, 33.2 µM.
Regarding `COc1cccc2c1C(=O)c1c(O)c3c(c(O)c1C2=O)C[C@@](O)(C(=O)CO)C[C@@H]3O[C@H]1C[C@H](N)[C@H](O)[C@H](C)O1` [DOXORUBICIN], the IC50 with MCF7 was 1.43 µM; in the assay with MDA-MB-231, 2.36 µM.
Regarding `O=C(Nc1ccc(C(=O)O)cc1)Nc1cc2cc(Br)ccc2o1`, the Ki amounted to 7.2 µM at Carbonic anhydrase 2, 1.6 µM on Carbonic anhydrase 12, 0.56 µM at Carbonic anhydrase 9 and 20.5 µM at Carbonic anhydrase 1.
For the compound `Cc1c(NC(=O)Nc2ccc(C(=O)NCC(=O)O)cc2)oc2ccccc12`, the Ratio Ki in the assay filed under Homo sapiens [1] was 10; in the assay listed under Homo sapiens [2], 24; in the assay filed under Homo sapiens [3] it was 2. The Ki was 25.8 µM at Carbonic anhydrase 2, 2.7 µM on Carbonic anhydrase 12, 35.7 µM on Carbonic anhydrase 9 and 64.7 µM on Carbonic anhydrase 1.
For `Cc1c(NC(=O)Nc2cccc(C(=O)O)c2)oc2ccccc12`, the Ki at Carbonic anhydrase 2 was determined as 10.1 µM; at Carbonic anhydrase 12, 2.2 µM; at Carbonic anhydrase 9, 0.91 µM; at Carbonic anhydrase 1 it was 32.8 µM.
`O=C(O)CNC(=O)c1ccc(NC(=O)Nc2cc3cc(Br)ccc3o2)cc1`: the Ratio Ki in the assay filed under Homo sapiens [1] was determined as 7; in the assay listed under Homo sapiens [2], 10; in the assay filed under Homo sapiens [4], 4; in the assay filed under Homo sapiens [3], 5. Moreover, the Ki on Carbonic anhydrase 2 was 67.1 µM; on Carbonic anhydrase 12, 10.1 µM; on Carbonic anhydrase 9 it was 19 µM; at Carbonic anhydrase 1 it was more than 100 µM.
Regarding `O=C(Nc1cc2cc(Br)ccc2o1)Nc1ccccc1C(=O)O`, the Ki at Carbonic anhydrase 2 is 4.1 µM; at Carbonic anhydrase 12, 8 µM; at Carbonic anhydrase 9, 5.1 µM; on Carbonic anhydrase 1, more than 100 µM. The Ratio Ki worked out at 13 in the assay listed under Homo sapiens [2] and 20 in the assay filed under Homo sapiens [3].
On to `Cc1c(NC(=O)Nc2ccccc2C(=O)O)oc2ccccc12`, for which the Ratio Ki in the assay filed under Homo sapiens [1] is 2; in the assay listed under Homo sapiens [2] it was more than 29; in the assay listed under Homo sapiens [4] it was 5; in the assay listed under Homo sapiens [3], more than 63. In addition, the inhibition constant (Ki) at Carbonic anhydrase 2 is 7.9 µM; at Carbonic anhydrase 12, 3.4 µM; on Carbonic anhydrase 9 it was 1.6 µM; at Carbonic anhydrase 1, more than 100 µM.
`Cc1c(NC(=O)Nc2ccc(C(=O)O)cc2)oc2ccccc12`: the Ratio Ki in the assay filed under Homo sapiens [1] came to 4; in the assay listed under Homo sapiens [2], 5. Also, the Ki was found to be 3.1 µM at Carbonic anhydrase 2, 0.88 µM on Carbonic anhydrase 12, 5.1 µM at Carbonic anhydrase 9 and 4.5 µM at Carbonic anhydrase 1.
